Data reported in patent US20090203753A1, “7-(2-amino-1-hydroxy-ethyl)-4-hydroxybenzothiazol-2(3H)-one-derivatives as beta2 adrenoreceptor agonists” (AstraZeneca AB, priority 2005, published 2009).

Assays:
β2 receptor = target: T1, β2 receptor (Homo sapiens, UniProt P07550); test: Alternative adrenergic β2 mediated cAMP production in H292 cells (60 minutes with test compound); type: cell-based
T1 construct: endogenous in cells; host or cells: H292 cells
Description: Alternative Adrenergic (β2 Mediated cAMP Production
H292 cells were grown in 225 cm2 flasks incubator at 37° C., 5% CO2 in RPMI medium containing, 10% (v/v) FBS (foetal bovine serum) and 2 mM L-glutamine.
Adherent H292 cells were removed from tissue culture flasks by treatment with Accutase™ cell detachment solution for 15 minutes. Flasks were incubated for 15 minutes in a humidified incubator at 37° C., 5% CO2. Detached cells were re-suspended in RPMI media (containing 10% (v/v) FBS and 2 mM L-glutamine) at 0.05×10^6 cells per mL. 5000 cells in 100 μL were added to each well of a tissue-culture-treated 96-well plate and the cells incubated overnight in a humidified incubator at 37° C., 5% CO2. The culture media was removed and cells were washed twice with 100 μL assay buffer and replaced with 50 μL assay buffer (HBSS solution containing 10 mM HEPES pH7.4 and 5 mM glucose). Cells were rested at room temperature for 20 minutes after which time 25 μL of rolipram (1.2 mM made up in assay buffer containing 2.4% (v/v) dimethylsulphoxide) was added. Cells were incubated with rolipram for 10 minutes after which time test compounds were added and the cells were incubated for 60 minutes at room temperature. The final rolipram concentration in the assay was 300 μM and final vehicle concentration was 1.6% (v/v) dimethylsulphoxide. The reaction was stopped by removing supernatants, washing once with 100 μL assay buffer and replacing with 50 μL lysis buffer. The cell monolayer was frozen at −80° C. for 30 minutes (or overnight).
The concentration of cAMP (cyclic adenosine monophosphate) in the cell lysate was determined using AlphaScreen™ methodology. The frozen cell plate was thawed for 20 minutes on a plate shaker then 10 μL of the cell lysate was transferred to a 96-well white plate. 40 μL of mixed AlphaScreen™ detection beads pre-incubated with biotinylated cAMP, was added to each well and the plate incubated at room temperature for 10 hours in the dark. The AlphaScreen™ signal was measured using an EnVision spectrophotometer (Perkin-Elmer Inc.) with the recommended manufacturer's settings. cAMP concentrations were determined by reference to a calibration curve determined in the same experiment using standard cAMP concentrations. Concentration response curves for agonists were constructed and data was fitted to a four parameter logistic equation to determine both the pEC50 and Intrinsic Activity. […]

[1] = target: T2, recombinant human α1D receptor (Homo sapiens, UniProt P25100); test: Adrenergic α1D selectivity assay, [3H]-prazosin binding to HEK293 membranes; details: read-out: α1 bind pIC50 (converted)
T2 construct: expressed in transfected cells; host or cells: HEK293
T2 sequence (P25100 1-572): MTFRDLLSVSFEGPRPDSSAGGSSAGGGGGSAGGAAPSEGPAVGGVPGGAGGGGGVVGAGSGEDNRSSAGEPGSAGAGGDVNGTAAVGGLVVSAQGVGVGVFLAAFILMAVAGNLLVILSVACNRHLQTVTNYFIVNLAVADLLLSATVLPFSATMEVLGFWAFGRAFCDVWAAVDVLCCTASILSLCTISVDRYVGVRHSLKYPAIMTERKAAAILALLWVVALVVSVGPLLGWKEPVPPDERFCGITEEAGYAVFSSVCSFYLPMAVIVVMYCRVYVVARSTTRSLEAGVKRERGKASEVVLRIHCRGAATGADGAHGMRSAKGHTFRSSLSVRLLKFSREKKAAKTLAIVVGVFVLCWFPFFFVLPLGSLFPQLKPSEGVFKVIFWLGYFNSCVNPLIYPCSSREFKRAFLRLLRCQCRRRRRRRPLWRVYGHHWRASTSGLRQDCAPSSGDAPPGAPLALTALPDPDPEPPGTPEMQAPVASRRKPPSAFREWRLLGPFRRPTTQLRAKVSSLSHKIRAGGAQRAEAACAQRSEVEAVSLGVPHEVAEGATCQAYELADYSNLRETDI
Description: Membranes were prepared from human embryonic kidney 293 (HEK293) cells expressing recombinant human α1D receptor. These were diluted in Assay Buffer (50 mM HEPES, 1 mM EDTA, 0.1% gelatin, pH 7.4) to provide a final concentration of membranes that gave a clear window between maximum and minimum specific binding.
(§1) Assays were performed in U-bottomed 96-well polypropylene plates. 10 μL [^3H]-prazosin (0.3 nM final concentration) and 10 μL of test compound (10× final concentration) were added to each test well. For each assay plate 8 replicates were obtained for [^3H]-prazosin binding in the presence of 10 μL vehicle (10% (v/v) DMSO in Assay Buffer; defining maximum binding) or 10 μL BMY7378 (10 μM final concentration; defining non-specific binding (NSB)). Membranes were then added to achieve a final volume of 100 μL. The plates were incubated for 2 hours at room temperature and then filtered onto PEI coated GF/B filter plates, pre-soaked for 1 hour in Assay Buffer, using a 96-well plate Tomtec cell harvester. Five washes with 250 μL wash buffer (50 mM HEPES, 1 mM EDTA, pH 7.4) were performed at 4° C. to remove unbound radioactivity. The plates were dried then sealed from underneath using Packard plate sealers and MicroScint-O (50 μL) was added to each well. The plates were sealed (TopSeal A) and filter-bound radioactivity was measured with a scintillation counter (TopCount, Packard BioScience) using a 3-minute counting protocol.
(§2) Total specific binding (B0) was determined by subtracting the mean NSB from the mean maximum binding. NSB values were also subtracted from values from all other wells.

[2] = target: T3, recombinant human adrenergic beta 1 receptors (Homo sapiens, UniProt P08588); test: Adrenergic β1 selectivity assay, [125I]-Iodocyanopindolol binding to membranes; details: inhibition of [125I]-Iodocyanopindolol binding (0.036 nM); read-out: β1 bind pIC50 (converted)
T3 construct: purchased Euroscreen
Description: (§3) Membranes containing recombinant human adrenergic beta 1 receptors were obtained from Euroscreen. These were diluted in Assay Buffer (50 mM HEPES, 1 mM EDTA, 120 mM NaCl, 0.1% gelatin, pH 7.4) to provide a final concentration of membranes that gave a clear window between maximum and minimum specific binding.
as §1, with “[^125I]-Iodocyanopindolol (0.036” for “[^3H]-prazosin (0.3”, “[^125I]-Iodocyanopindolol” for “[^3H]-prazosin”, “Propranolol” for “BMY7378”, “EDTA, 120 mM NaCl,” for “EDTA,”
as §2

[3] = target: T4, recombinant human Dopamine Subtype D2s receptors (Homo sapiens, UniProt P14416); test: Dopamine D2 selectivity assay, [3H]-spiperone binding to membranes; details: read-out: D2 bind pIC50 (converted)
T4 construct: purchased Perkin Elmer
Description: as §3, with “human Dopamine Subtype D2s” for “human adrenergic beta 1”, “from Perkin Elmer.” for “from Euroscreen.”, “[…]” for “1 mM”
Assays were performed in U-bottomed 96-well polypropylene plates. 30 μL [^3H]-spiperone (0.16 nM final concentration) and 30 μL of test compound (10× final concentration) were added to each test well. For each assay plate 8 replicates were obtained for [^3H]-spiperone binding in the presence of 30 μL vehicle (10% (v/v) DMSO in Assay Buffer; defining maximum binding) or 30 μL Haloperidol (10 μM final concentration; defining non-specific binding (NSB)). Membranes were then added to achieve a final volume of 300 μL. The plates were incubated for 2 hours at room temperature and then filtered onto PEI coated GF/B filter plates, pre-soaked for 1 hour in Assay Buffer, using a 96-well plate Tomtec cell harvester. Five washes with 250 μL wash buffer (50 mM HEPES, 1 mM EDTA, 120 mM NaCl, pH 7.4) were performed at 4° C. to remove unbound radioactivity. The plates were dried then sealed from underneath using Packard plate sealers and MicroScint-O (50 μL) was added to each well. The plates were sealed (TopSeal A) and filter-bound radioactivity was measured with a scintillation counter (TopCount, Packard BioScience) using a 3-minute counting protocol.
as §2

T1 sequence (P07550 whole entry): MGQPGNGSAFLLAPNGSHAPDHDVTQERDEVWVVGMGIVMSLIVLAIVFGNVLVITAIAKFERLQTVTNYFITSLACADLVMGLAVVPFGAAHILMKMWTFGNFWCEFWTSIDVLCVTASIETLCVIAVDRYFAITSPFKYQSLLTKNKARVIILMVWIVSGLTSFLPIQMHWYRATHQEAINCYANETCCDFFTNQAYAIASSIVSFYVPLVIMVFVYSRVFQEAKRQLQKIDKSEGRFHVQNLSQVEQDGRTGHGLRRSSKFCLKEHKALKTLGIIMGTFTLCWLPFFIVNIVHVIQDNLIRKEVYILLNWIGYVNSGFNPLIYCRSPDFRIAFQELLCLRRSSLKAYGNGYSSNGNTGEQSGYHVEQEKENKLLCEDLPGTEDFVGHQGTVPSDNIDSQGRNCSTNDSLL
T4 sequence (P14416 1-414 isoform P14416-2): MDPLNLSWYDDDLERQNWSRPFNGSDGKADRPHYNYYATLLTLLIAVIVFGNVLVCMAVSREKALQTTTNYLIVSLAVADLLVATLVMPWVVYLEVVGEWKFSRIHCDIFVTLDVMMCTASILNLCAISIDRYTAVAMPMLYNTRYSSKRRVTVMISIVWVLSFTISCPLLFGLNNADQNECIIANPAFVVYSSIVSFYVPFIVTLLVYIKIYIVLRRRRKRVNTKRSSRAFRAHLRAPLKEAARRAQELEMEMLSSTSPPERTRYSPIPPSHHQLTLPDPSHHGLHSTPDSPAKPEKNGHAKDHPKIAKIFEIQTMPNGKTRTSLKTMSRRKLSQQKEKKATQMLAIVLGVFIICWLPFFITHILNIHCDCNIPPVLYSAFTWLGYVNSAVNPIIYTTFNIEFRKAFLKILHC
T3 sequence (P08588 whole entry): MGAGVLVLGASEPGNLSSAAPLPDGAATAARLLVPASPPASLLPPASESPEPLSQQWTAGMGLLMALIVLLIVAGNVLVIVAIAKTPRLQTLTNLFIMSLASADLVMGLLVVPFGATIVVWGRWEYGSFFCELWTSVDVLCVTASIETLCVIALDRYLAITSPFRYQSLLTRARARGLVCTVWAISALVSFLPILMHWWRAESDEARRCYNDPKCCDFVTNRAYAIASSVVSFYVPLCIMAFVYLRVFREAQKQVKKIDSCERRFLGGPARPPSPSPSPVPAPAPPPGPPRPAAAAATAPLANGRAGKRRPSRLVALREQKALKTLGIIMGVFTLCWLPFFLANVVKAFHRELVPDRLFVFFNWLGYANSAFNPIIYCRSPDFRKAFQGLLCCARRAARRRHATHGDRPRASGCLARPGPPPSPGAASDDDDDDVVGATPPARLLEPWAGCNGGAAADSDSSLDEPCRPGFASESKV

Which results are given for `CCN(CC)CCN(CCNC[C@H](O)c1ccc(O)c2[nH]c(=O)sc12)C(=O)CCOCCc1cccc(Cl)c1` [Example 9, 3-[2-(3-Chlorophenyl)ethoxy]-N-[2-(diethylamino)ethyl]-N-(2-{[(2R)-2-hydroxy-2-(4-hydroxy-2-oxo-2,3-dihydro-1,3-benzothiazol-7-yl)ethyl]amino}ethyl)propanamide]?
EC50 (β2 receptor; cAMP, 60 minutes incubation with compound, 300 μM rolipram, read-out: β2 pEC50 (converted)): 3.98 nM; β2 Int Act (β2 receptor; fraction relative to the maximum activity determined for formoterol, 60 minutes incubation): 0.9; IC50 [1]: 2000 nM; IC50 [2]: 1580 nM; IC50 [3]: > 10000 nM
